From patent US20080085861A1, “GAS1 POLYPEPTIDES” (priority 1999, published 2008)
Entries after “also recorded” stand apart in the source; their conditions may differ.

Key:
[1] = system: human neuroblastoma NB69 cells; test: Staurosporine-induced neuronal death in NB69 cells, viable cell count; assay type: cell-based; details: 200 nM staurosporine, viability 24 hr after exposure; 25 μM Ag1 in NB69 wt, or stable expression in NB69-Gas1 cells
Description: Columns 1 and 2. […] Columns 3 and 4. The viability was analyzed 24 hr after exposure to staurosporine (200 nM) in all the cases. Results are expressed as mean +/−SEM. Statistical analysis was performed by Student's t-test. *** denotes […], and other treatment groups were statistically non-significant (p<0.5).
Staurosporine-induced neuronal death was assayed in human neuroblastoma NB69 cells cultured in DMEM/HAM F12 medium supplemented with 10% fetal calf serum, 2 mM glutamine and 50 μg/ml gentamycin. Wild-type or stably transfected NB69 cells (2×10^4 cells/35 mm dish) were exposed to […] staurosporine (RBI). Phase-bright cells without signs of membrane or neurite degeneration were counted 24 hr later. Experiments were done in triplicate and repeated as least five times. Stably transfected NB69 cells that overexpress Gas1 in the […] orientation (NB69-Gas1) were prepared by the calcium phosphate precipitation method followed by two weeks of geneticin selection. Control cells were prepared in parallel by transfection with pCDNA3 vector alone (NB69-vector). Expression of the constructs in the cell clones were analyzed by northern blot analysis, and the clones having the highest expression were chosen for the experiments. Stable tranfectants were kept in the presence of 0.3 mg/ml of geneticin, which was removed before plating for the experiments.

[2] = system: cortico-hippocampal cultures; test: NMDA-induced neuronal death (excitotoxicity) in cortico-hippocampal cultures, viability by vital staining; assay type: cell-based, rat; parameters: survival: dose or concentration left out as unconfirmed
Description: The viability of mature cortico-hippocampal cultures was analyzed 24 hr after […] NMDA exposure. Pretreatment with the different antisense oligonucleotides at the indicated concentrations was done 24 hr before the exposure to NMDA. Results are expressed as mean +/−SEM. Statistical analysis was performed by Student's t-test. *** denotes […], and other treatment groups were statistically non-significant (p<0.5).
NMDA-induced excitotoxicity was analyzed in cortico-hippocampal cultures maintained for 12-14 DIV similar to those already described in Example 1. To apply the excitotoxic insult, the cultures were rinsed twice with Locke's solution without Mg2+ and exposed to […] NMDA (Sigma) for 5 min. in the same Locke's solution or to Locke's solution alone as control. NMDA was washed out, the Mg2+ concentration was restored by 2 changes of Locke's +Mg2+ solution, and the original medium was replaced. Phase-bright bipolar cells, taken to represent living neurons, were counted 24 hr after the NMDA exposure. Alternatively, the vital staining method (Jones and Senft, 1985 An improved method to determine cell viability by simultaneous staining with fluorescein diacetate-propidium iodide. J Histochem Cytochem 33:77-79) was used to assess the extent of neuronal death and the protection by antisense oligonucleotide treatments. Similar results were obtained using either method. […]

Gas1 expression = Gas1 expression in brain after intraperitoneal kainic acid (Northern blot); assay type: in vivo, rat; details: 10 mg/kg intraperitoneal; hippocampus and olfactory cortex
Description: Already detectable induced Gas1 mRNA levels after kainic acid appear 6 hours after the beginning of treatment and were maintained for at least 10 days. In order to reveal Gas1 induction and to confirm neurone localization thereof in situ hybridization after administering kainic acid was performed. […] Similar results were observed after provoking an experimental ischemic process in gerbil brain by transient occlusion of both carotids, giving rise to rapid degeneration of a numerous population of pyramidal neurons of the CA1 layer of the hippocampus. It was observed that this massive neuron death was preceded by a significant rise of Gas1 mRNA and Gas1 protein levels (evaluated by immunocytochemistry) in those neurons. Likewise, it was also observed that neuron loss in all the cerebral cortex that is produced in rats in the perinatal period after exposure to ionizing radiation is preceded by high induction of Gas1 mRNA.

[3] = Channel formation of purified Gas1 protein in artificial bilayers; assay type: biochemical; details: purified protein expressed in bacteria (pTrcHis)
Text: Initially, Gas1 expression has been related to the G0 phase of cell cycle arrest in rat fibroblasts deprived of serum (Del Sal et al., 1992). […] Up to now it had been described that Gas1 protein was a cell membrane protein and as of its amino acid sequence the presence of two transmembrane segments had been proposed and a hypothetical RGD domain that may interact with integrin, the only domain described that relates its structure to its arrest function of the cell cycle (Schneider et al.). The present inventors have succeeded in overexpressing the Gas1 protein by means of a prokaryotic vector (pTrcHis) in bacteria for subsequent purification in sufficient amounts to carry out protein studies. […] Aside from the already described location of this protein in the cell membrane we have located the presence of Gas1 in the perinuclear and mitochondrial membrane. It must be pointed out that Bcl-2 and Bax, proteins related to the […], are also located in the mitochondrial membrane and are capable of forming ionic channels. This common location of these proteins makes compatible a possible functional interaction of Gas1 with Bax type proapoptotic proteins and Bcl-2 and Bcl XL antiapoptotic proteins.

5′-TCCTCATCCATCCAT-3′ (DNA, linkages s2 o10 s2 (s phosphorothioate, o phosphodiester), methylation of C not given here) [AG1, 15-mer Gas1 antisense oligonucleotide spanning the start site of translation, protected at each end by two phosphorothioate groups]
effect on staurosporine-induced reduction in survival [1]: prevents the reduction in survival; also recorded: total blocking
effect on NMDA-induced neuronal death ([2]; 25 μM Ag1, pretreatment 24 hr before 500 mM NMDA, viability 24 hr after exposure): blocks NMDA-induced neuronal death
survival ([2]; NMDA induced neuron death in primary neuron cultures, FIG. 2a): ~100%

C=C(C)[C@H]1CN[C@H](C(=O)O)[C@H]1CC(=O)O [kainic acid]
induction of Gas1 expression (Gas1 expression): strong induction

B1: Gas1 protein: purified Gas1 protein overexpressed by a prokaryotic vector (pTrcHis) in bacteria (protein)
chain: LAHGRRLICWQALLQCQGEPECSYAYNQYAEACAPVLAQHGGGDAPGAAAAAFPASAASFSSRWRCPSHCISALIQLNHTRRGPALEDCDCAQDENCKSTKRAIEPCLPRTSGGGAGGPGAGGVMGCTEARRRCDRDSRCNLALSRYLTYCGKVFNGLRCTDECRTVIEDMLAMPKAALLNDCVCDGLERPICESVKENMARLCFGAELGNGPGSSGSDGGLDDYYDEDYDDEQRTGGAGGEQPLDDDDGVPHPPRPGSGAAASGGRGDLPYGPGRRS
channel formation [3]: capable of inserting in and forming cationic channels
